Results on 4 compounds are retold here after article PMC7235778, “Methylxanthines Inhibit Primary Amine Oxidase and Monoamine Oxidase Activities of Human Adipose Tissue” (Medicines, 2020).

As a reminder, the inhibition is the drop in the measured response relative to a control, in per cent.

Test [1] deals with T1, primary amine oxidase (PrAO; SSAO/VAP-1) (Homo sapiens, UniProt Q16853).
T1 construct: gene AOC3; native enzyme in human subcutaneous adipose tissue homogenate
T1 sequence (Q16853 1-763): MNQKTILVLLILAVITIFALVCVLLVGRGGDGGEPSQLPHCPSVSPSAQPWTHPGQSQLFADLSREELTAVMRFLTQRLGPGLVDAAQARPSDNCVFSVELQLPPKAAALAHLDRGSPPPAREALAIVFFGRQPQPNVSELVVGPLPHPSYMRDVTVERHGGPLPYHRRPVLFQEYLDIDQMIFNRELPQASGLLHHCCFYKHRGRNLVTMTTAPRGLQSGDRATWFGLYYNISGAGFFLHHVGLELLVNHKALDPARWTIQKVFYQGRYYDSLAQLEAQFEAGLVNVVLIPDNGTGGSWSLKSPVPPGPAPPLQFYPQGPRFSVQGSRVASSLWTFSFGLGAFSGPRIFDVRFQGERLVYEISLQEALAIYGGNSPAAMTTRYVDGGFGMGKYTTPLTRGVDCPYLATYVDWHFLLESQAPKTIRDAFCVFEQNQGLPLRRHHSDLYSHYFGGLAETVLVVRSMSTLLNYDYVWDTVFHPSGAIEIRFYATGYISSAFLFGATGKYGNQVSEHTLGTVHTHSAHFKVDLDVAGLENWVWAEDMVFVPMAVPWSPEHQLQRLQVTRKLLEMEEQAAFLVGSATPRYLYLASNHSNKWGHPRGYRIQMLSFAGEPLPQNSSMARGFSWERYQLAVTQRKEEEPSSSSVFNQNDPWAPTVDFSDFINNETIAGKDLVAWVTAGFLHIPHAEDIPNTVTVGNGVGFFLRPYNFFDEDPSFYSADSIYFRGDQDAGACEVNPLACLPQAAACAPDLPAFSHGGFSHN
The experiment in a line: Amplex Red H2O2 assay of methylamine and benzylamine oxidation in adipose tissue homogenate. Type of test: cell-based. Particulars: read-out: % inhibition at 1 mM.

The target in test [2] is T1, primary amine oxidase (PrAO; SSAO/VAP-1). Kind of test: Amplex Red H2O2 assay of benzylamine and methylamine oxidation in adipose tissue homogenate. Type of test: cell-based. As to conditions: read-out: % inhibition at 2.5 mM.
The target is the same in test [3]. Described as above. Type of test: biochemical.
The target is the same in test [4]. The experiment in a line: Amplex Red H2O2 assay of benzylamine oxidation in adipose tissue homogenate; Lineweaver-Burk analysis. Type of test: cell-based. Particulars: read-out: % inhibition at 2.5 mM.

Take `CC(C)Cn1c(=O)n(C)c(=O)c2[nH]cnc21` [IBMX, 3-isobutyl-1-methylxanthine]: the inhibition at 1000 µM in test [1] was about 80%.
Consider `Cn1c(=O)c2c(ncn2C)n(C)c1=O` [caffeine], for which the inhibition at 2500 µM in test [2] was about 50%.
Take `NNC(N)=O` [Semi, semicarbazide]: the “Amplex Red H2O2 assay of benzylamine and methylamine oxidation in adipose tissue” value in test [3] is listed as “total inhibition at 1”.
`Cn1cnc2c1c(=O)[nH]c(=O)n2C` [theobromine]: the inhibition at 2500 µM in test [4] came to 54%.
